Results: patent US20180296542A1, “IMINOSUGARS FOR IMPROVING BONE MINERAL DENSITY IN BONE DISEASE” (Saint Louis University, priority 2015, published 2018)

Tests used:
[1] = system: TNSALP-null (Akp2^−/−) mice, in vivo model of bone disease (WT, Het, KO); assay: MicroCT of femur trabecular bone (Example 2)
Method: (§1) TNSALP-null (Akp2^−/−) mice served as an in vivo model of bone disease to analyze the effects of the iminosugar, Miglustat.
(§2) Mice were obtained, bred and genotyped as described above. Five mice of each genotype (Wild-type (WT), heterozygous (Het), and homozygous (KO)) were included in each treatment group (i.p. administration of PBS, 400 mg/kg Miglustat, and 1200 mg/kg Miglustat as described above). A total of 44 mice were analyzed (1 Akp2^−/− homozygous mouse was omitted in the PBS group). Mice were scanned using microCT and analyzed as described above. Cortical bone in the middle 20% of bone length from trochanter to distal condyles in the femur was scanned and cortical thickness and bone mineral density were obtained. Cortical thickness (Ct.Th, μm) was used as an indication of average thickness of cortical bone. Trabecular bone of the final 625 μm before the femoral growth plate was scanned.
Bone volume fraction is the ratio of the segmented bone volume to the total volume of the region of interest.
Trabecular thickness was measured as illustrated in FIG. 23. […] Trabecular separation is the mean distance between trabeculae assessed using direct 3D methods as illustrated in FIG. 25.
As depicted in FIG. 26, the trabecular number changed with Miglustat in both heterozygotes and homozygotes treated with Miglustat. As depicted in FIG. 27, structure model index (SMI) increased in homozygous AKP mice treated with Miglustat. […] SMI represents an indicator of the structure of the trabeculae. SMI will be zero for parallel plates and 3 for cylindrical rods.
Connectivity density is a measure of the degree of connectivity of trabeculae normalized by total volume.

[2] = system: TNSALP-null (Akp2^−/−) mice (WT, KO); assay: MicroCT of trabecular bone in the lumbar vertebrae (Example 2); assay type: in vivo
Method: as §1, §2
In addition to microCT analysis of femurs, microCT analysis was performed on trabecular bone in the lumbar vertebrae. […] Bone volume fraction of vertebrae is the ratio of the segmented bone volume to the total volume of the region of interest.
As depicted in FIG. 30, trabecular thickness (Tb.Th, mm) increased at 400 mg/kg of Miglustat. The profile of trabecular thickness in spine without treatment is different than femoral trabecular thickness. Trabecular thickness is the mean thickness or trabeculae assessed using direct 3D methods described above.
The profile of trabecular separation in spine is different than in femoral. Trabecular separation is the mean distance between trabeculae assessed using direct 3D methods described above.
The profile and baseline number of trabeculae in spine was different than in femoral. Trabecular number is the measure of the average number of trabeculae per unit length.
As depicted in FIG. 33, structure model index decreased in homozygote mice treated with Miglustat. […] As discussed previously, SMI is an indicator of the structure of the trabeculae. SMI will be zero for parallel plates and 3 for cylindrical rods.
As depicted in FIG. 34, the connectivity density increased after treatment of homozygotes with high doses of Miglustat. As described above, connectivity density is a measure of the degree of connectivity of trabeculae normalized by total volume.
As depicted in FIG. 35, the degree of anisotropy increased with Miglustat meaning that treatment affected the orientation of trabeculae in the bone. Degree of anisotropy defines the direction and magnitude of the preferred orientation of trabeculae and uses the ratio between the maximum and minimum radii of the mean intercept length ellipsoid.

[3] = system: TNSALP-null (Akp2^−/−) mice (WT, Het, KO); assay: X-Rays of femurs (Example 2); assay type: in vivo; conditions: 400 and 1200 mg/kg Miglustat, FIGS. 13A-13I
Method: FIGS. 13A-13I are X-Rays of femurs from Wild-type mice administered PBS (WT-PBS; FIG. 13A), Heterozygous mice administered PBS (Het-PBS; FIG. 13B), Homozygous mice administered PBS (KO-PBS; FIG. 13C), Wild-type mice administered 400 mg/kg Miglustat (WT-400 mg/kg; FIG. 13D), Heterozygous mice administered 400 mg/kg Miglustat (Het-400 mg/kg; FIG. 13E), Homozygous mice administered 400 mg/kg Miglustat (KO-400 mg/kg; FIG. 13F), Wild-type mice administered 1200 mg/kg Miglustat (WT-1200 mg/kg; FIG. 13G), Heterozygous mice administered […] Miglustat (Het-1200 mg/kg; FIG. 13H), Homozygous mice administered […] Miglustat (KO-1200 mg/kg; FIG. 13I) showing increased bone at primary ossification centers (arrowheads).
Full-body ventral and side-view x-rays were taken after euthanizing the mice. The left anatomical legs were dissected to obtain the femoral bones. Femurs were then frozen before being placed in 10% formalin the day prior to microCT scanning. […]
Mice were obtained, bred and genotyped as described above. […] A total of 44 mice were analyzed (1 Akp2^−/− homozygous mouse was omitted in the PBS group). Mice were scanned using microCT and analyzed as described above. […]

## CCCCN1C[C@H](O)[C@@H](O)[C@H](O)[C@H]1CO [Miglustat, (2R,3R,4R,5S)-1-butyl-2-(hydroxymethyl)piperidine-3,4,5-triol]
[1]; FIG. 24
  Trabecular separation (Tb.Sp), femur: decrease
[1]; Homozygotes (KO), 400 and 1200 mg/kg, FIGS. 20A-20D
  Appearance of trabeculae (microCT images): restore the appearance of narrow trabeculae
[1]; after treatment, FIG. 21
  Overall bone volume (bone volume fraction), femur: not significantly increased
[1]; heterozygotes and homozygotes, FIG. 26
  Trabecular number (Tb.N), femur: changed
[1]; heterozygotes or homozygotes, FIG. 28
  Connectivity density (Conn. D), femur: did not change
[1]; homozygotes, FIG. 22
  Trabecular thickness (Tb.Th), femur: lower
[1]; homozygous AKP mice, FIG. 27
  Structure model index (SMI), femur: increased
[2]; 400 mg/kg, FIG. 30
  Trabecular thickness (Tb.Th), lumbar vertebrae: increased
[2]; FIG. 31
  Trabecular separation (Tb.Sp), lumbar vertebrae: increased proportional to dose
[2]; FIG. 32
  Trabecular number (Tb.N), lumbar vertebrae: did not change significantly
[2]; FIG. 35
  Degree of anisotropy (DA), lumbar vertebrae: increased
[2]; homozygote mice, FIG. 33
  Structure model index (SMI), lumbar vertebrae: decreased
[2]; homozygotes, high doses, FIG. 34
  Connectivity density (Conn. D), lumbar vertebrae: increased
[2]; homozygotes, FIG. 29
  Overall bone volume (bone volume fraction), lumbar vertebrae: not significantly increased
[3]
  Bone at primary ossification centers (X-Rays of femurs): increased
